Assay [1] has as its target human GLP-1R (Homo sapiens (Human), UniProt P43220, L260F). Kind of assay: CHO GLP-1R Clone C6—Assay 2: HTRF cAMP cell-based functional agonist assay (low GLP-1R density). Conditions: for EC50: CHO GLP-1R Clone C6, cAMP HTRF, geometric mean; for Emax: read-out: Assay 2 Emax (%). (Time-resolved FRET reads energy transfer from a long-lived donor to a nearby acceptor.)
Protocol: GLP-1R-mediated agonist activity was determined with a cell-based functional assay utilizing an HTRF (Homogeneous Time-Resolved Fluorescence) cAMP detection kit (cAMP HI Range Assay Kit; Cis Bio cat #62AM6PEJ) that measures cAMP levels in the cell. The method is a competitive immunoassay between native cAMP produced by the cells and exogenous cAMP labeled with the dye d2. The tracer binding is visualized by a mAb anti-cAMP labeled with Cryptate. The specific signal (i.e. energy transfer) is inversely proportional to the concentration of cAMP in either a standard or an experimental sample.
The human GLP-1R coding sequence (NCBI Reference Sequence NP_002053.3, including naturally-occurring variant Leu260Phe) was subcloned into pcDNA5-FRT-TO and a clonal CHO cell line stably expressing a low receptor density was isolated using the Flp-In™ T-Rex™ System, as described by the manufacturer (ThermoFisher).
Cells were removed from cryopreservation, re-suspended in 40 mL of Dulbecco's Phosphate Buffered Saline (DPBS-Lonza Cat #17-512Q) and centrifuged at 800×g for 5 min at 22° C. The DPBS was aspirated, and the cell pellet was re-suspended in 10 mL of complete growth medium (DMEM:F12 1:1 Mixture with HEPES, L-Gln, 500 mL (DMEM/F12 Lonza Cat #12-719F), 10% heat inactivated fetal bovine serum (Gibco Cat #16140-071), 5 mL of 100× Pen-Strep (Gibco Cat #15140-122), 5 mL of 100× L-Glutamine (Gibco Cat #25030-081), 700 μg/mL Hygromycin (Invitrogen Cat #10687010) and 15 μg/mL Blasticidin (Gibco Cat #R21001). A 1 mL sample of the cell suspension in growth media was counted on a Becton Dickinson ViCell to determine cell viability and cell count per mL. The remaining cell suspension was then adjusted with growth media to deliver 1600 viable cells per well using a Matrix Combi Multidrop reagent dispenser, and the cells were dispensed into a white 384 well tissue culture treated assay plate (Corning 3570). The assay plate was then incubated for 48 h at 37° C. in a humidified environment (95% O2, 5% CO2)
Varying concentrations of each compound to be tested (in DMSO) were diluted in assay buffer [HBSS with Calcium/Magnesium (Lonza/BioWhittaker cat #10-527F)/0.1% BSA (Sigma Aldrich cat #A7409-1L)/20 mM HEPES (Lonza/BioWhittaker cat #17-737E)] containing 100 μM 3-isobutyl-1-methylxanthin (IBMX; Sigma cat #15879). The final DMSO concentration in the compound/assay buffer mixture is 1%.
After 48 h, the growth media was removed from the assay plate wells, and the cells were treated with 20 μL of the serially diluted compound in assay buffer for 30 min at 37° C. in a humidified environment (95% O2, 5% CO2). Following the 30 min incubation, 10 μL of labeled d2 cAMP and 10 μL of anti-cAMP antibody (both diluted 1:20 in cell lysis buffer; as described in the manufacturer's assay protocol) were added to each well of the assay plate. The plates were then incubated at room temperature and after 60 minutes, changes in the HTRF signal were read with an Envision 2104 multi-label plate reader using excitation of 330 nm and emissions of 615 and 665 nm. Raw data were converted to nM cAMP by interpolation from a cAMP standard curve (as described in the manufacturer's assay protocol) and the percent effect was determined relative to a saturating concentration of the full agonist GLP-1 (1 μM) included on each plate. EC50 determinations were made from agonist dose response curves analyzed with a curve fitting program using a 4-parameter logistic dose response equation.
The target of assay [2] is human GLP-1R (Homo sapiens, UniProt P43220, G168S). As to the kind of experiment: CHO GLP-1R Clone H6—Assay 1: HTRF cAMP cell-based functional agonist assay (high GLP-1R density). Conditions: for EC50: read-out: Assay 1 EC50, CHO GLP-1R Clone H6, cAMP HTRF, geometric mean.
Sequence of human GLP-1R (Homo sapiens, UniProt P43220, G168S) (P43220 24-463 G168S limits assumed): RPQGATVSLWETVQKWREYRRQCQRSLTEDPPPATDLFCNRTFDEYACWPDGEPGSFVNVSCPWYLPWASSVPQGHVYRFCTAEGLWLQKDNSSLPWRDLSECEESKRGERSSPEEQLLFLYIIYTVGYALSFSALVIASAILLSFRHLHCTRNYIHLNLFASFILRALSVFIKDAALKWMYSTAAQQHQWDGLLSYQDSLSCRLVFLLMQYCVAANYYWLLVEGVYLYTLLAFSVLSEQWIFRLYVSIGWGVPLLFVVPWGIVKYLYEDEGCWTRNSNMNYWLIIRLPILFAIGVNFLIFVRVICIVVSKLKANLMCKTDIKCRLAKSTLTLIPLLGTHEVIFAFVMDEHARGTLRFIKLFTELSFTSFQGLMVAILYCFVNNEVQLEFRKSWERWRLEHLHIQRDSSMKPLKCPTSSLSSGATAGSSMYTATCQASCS
The mark [3] stands for this setting: CHO GLP-1R Clone C6, relative to saturating concentration of full agonist GLP-1 (1 μM), arithmetic mean.
The mark [4] stands for this setting: read-out: Assay 1 Emax (%), CHO GLP-1R Clone H6, relative to saturating concentration of full agonist GLP-1 (1 μM), arithmetic mean.

Where two headings read alike, the source gives them in different places.

Sequence of human GLP-1R (Homo sapiens (Human), UniProt P43220, L260F) (P43220 24-463 L260F): as the sequence (P43220 24-463 G168S limits assumed) above, with S145G, L237F counted along it

Regarding `O=C(O)c1ccc2nc(CN3CCC(c4cccc(OCc5ccc(F)cc5F)n4)CC3)n(C[C@@H]3CCO3)c2n1` [Example 2A-20, 2-[(4-{6-[(2,4-difluorobenzyl)oxy]pyridin-2-yl}piperidin-1-yl)methyl]-3-[(2S)-oxetan-2-ylmethyl]-3H-imidazo[4,5-b]pyridine-5-carboxylic acid], the figures for the concentration for a half-maximal effect (EC50) in assay [1] and in assay [2] were 0.014 µM and 0.00096 µM, respectively. In addition, the results for the maximum response (Emax) in assay [1] (setting [3]) and in assay [2] (setting [4]) were 95% and 80%, respectively.
As for `C[C@H]1CN(c2cccc(OCc3ccc(C#N)cc3F)n2)CCN1Cc1nc2ccc(C(=O)O)nc2n1Cc1ncco1` [Example 2A-21, 2-{[(2S)-4-{6-[(4-cyano-2-fluorobenzyl)oxy]pyridin-2-yl}-2-methylpiperazin-1-yl]methyl}-3-(1,3-oxazol-2-ylmethyl)-3H-imidazo[4,5-b]pyridine-5-carboxylic acid], the concentration giving a half-maximal response (EC50) is 0.22 µM in assay [1] and 0.0085 µM in assay [2]. In addition, the results for the Emax in assay [1] (setting [3]) and in assay [2] (setting [4]) were 110% and 88%, respectively.
With `O=C(O)c1ccc2nc(CN3CCC(c4cccc(OCc5ccc(Cl)cc5F)n4)CC3)n(C[C@H]3CCO3)c2n1` [Example 2A-22, 2-[(4-{6-[(4-chloro-2-fluorobenzyl)oxy]pyridin-2-yl}piperidin-1-yl)methyl]-3-[(2R)-oxetan-2-ylmethyl]-3H-imidazo[4,5-b]pyridine-5-carboxylic acid], the EC50 in assay [1] is 0.19 µM; in assay [2], 0.014 µM. Besides, the maximal response (Emax) in assay [1] (setting [3]) is 83%; in assay [2] (setting [4]), 72%.
As for `O=C(O)c1ccc2nc(CN3CCC(c4cccc(OCc5ccc(Cl)cc5F)n4)CC3)n(C[C@@H]3CCO3)c2n1` [Example 2A-23, 2-[(4-{6-[(4-chloro-2-fluorobenzyl)oxy]pyridin-2-yl}piperidin-1-yl)methyl]-3-[(2S)-oxetan-2-ylmethyl]-3H-imidazo[4,5-b]pyridine-5-carboxylic acid], the concentration for a half-maximal effect (EC50) in assay [1] was determined as 0.022 µM; in assay [2] it was 0.0005 µM. In addition, the Emax in assay [1] (setting [3]) turned out to be 96%; in assay [2] (setting [4]), 73%.
Turning to `O=C(O)c1ccc2nc(CN3CCC(c4cccc(OCc5ccc(Cl)cc5F)n4)CC3)n(C[C@@H]3CCO3)c2c1` [Example 3A-01, 2-[(4-{6-[(4-chloro-2-fluorobenzyl)oxy]pyridin-2-yl}piperidin-1-yl)methyl]-1-[(2S)-oxetan-2-ylmethyl]-1H-benzimidazole-6-carboxylic acid], the concentration for a half-maximal effect (EC50) in assay [1] is 0.012 µM; in assay [2] it was 0.00094 µM. Further, the Emax turned out to be 98% in assay [1] (setting [3]) and 83% in assay [2] (setting [4]).
Consider `N#Cc1ccc(COc2cccc(C3CCN(Cc4nc5ccc(C(=O)O)cc5n4C[C@@H]4CCO4)CC3)n2)c(F)c1` [Example 4A-01, 2-[(4-{6-[(4-cyano-2-fluorobenzyl)oxy]pyridin-2-yl}piperidin-1-yl)methyl]-1-[(2S)-oxetan-2-ylmethyl]-1H-benzimidazole-6-carboxylic acid], for which the Emax in assay [1] was 100%; in assay [2] (read-out: Assay 1 Emax (%)), 79%.
`N#Cc1ccc(COc2cccc(N3CCN(Cc4nc5ccc(C(=O)O)cc5n4C[C@@H]4CCO4)CC3)n2)c(F)c1` [Example 5A-01, 2-[(4-{6-[(4-Cyano-2-fluorobenzyl)oxy]pyridin-2-yl}piperazin-1-yl)methyl]-1-[(2S)-oxetan-2-ylmethyl]-1H-benzimidazole-6-carboxylic acid]: the 50% effective concentration (EC50) in assay [1] was 0.0074 µM; in assay [2], 0.00034 µM. In addition, the maximal effect (Emax) in assay [1] (setting [3]) is 94%; in assay [2] (setting [4]), 78%.
Consider `N#Cc1ccc(COc2cccc(C3CCN(Cc4nc5ccc(C(=O)O)nc5n4C[C@@H]4CCO4)CC3)n2)c(F)c1` [Example 6A-01, 2-[(4-{6-[(4-cyano-2-fluorobenzyl)oxy]pyridin-2-yl}piperidin-1-yl)methyl]-3-[(2S)-oxetan-2-ylmethyl]-3H-imidazo[4,5-b]pyridine-5-carboxylic acid], for which the EC50 in assay [1] came out at 0.0088 µM; in assay [2], 0.00076 µM. The values for the Emax in assay [1] (setting [3]) and in assay [2] (setting [4]) were 100% and 88%, respectively.
Regarding `N#Cc1ccc(COc2cccc(C3CCN(Cc4nc5ccc(C(=O)O)cc5n4Cc4ncco4)CC3)n2)c(F)c1` [Example 7A-01, 2-[(4-{6-[(4-cyano-2-fluorobenzyl)oxy]pyridin-2-yl}piperidin-1-yl)methyl]-1-(1,3-oxazol-2-ylmethyl)-1H-benzimidazole-6-carboxylic acid], the Emax in assay [1] (setting [3]) amounted to 86%; in assay [2] (setting [4]), 84%.
Regarding `COCCn1c(CN2CCC(c3cccc(OCc4ccc(C)cc4)n3)CC2)nc2ccc(C(=O)O)cc21` [Example 8A-01, Ammonium 2-((4-(6-((4-Methylbenzyl)oxy)pyridin-2-yl)piperidin-1-yl)methyl)-1-(2-methoxyethyl)-1H-benzo[d]imidazole-6-carboxylate], the EC50 stood at 1.1 µM in assay [1] and 0.1 µM in assay [2]. Moreover, the figures for the maximum response (Emax) in assay [1] (setting [3]) and in assay [2] (setting [4]) were 90% and 99%, respectively.
Taken in the same sequence, the figures for `COCCn1c(CN2CCC(c3cccc(OCc4cc(F)c(Cl)cc4F)n3)CC2)nc2ccc(C(=O)O)cc21` [Example 8A-03, 2-((4-(6-((4-chloro-2,5-difluorobenzyl)oxy)pyridin-2-yl)piperidin-1-yl)methyl)-1-(2-methoxyethyl)-1H-benzo[d]imidazole-6-carboxylic acid] were 0.35 µM, 0.018 µM, 77% and 84%.
For `COCCn1c(CN2CCC(c3cccc(OCc4c(F)cc(Cl)cc4F)n3)CC2)nc2ccc(C(=O)O)cc21` [Example 8A-04, 2-((4-(6-((4-chloro-2,6-difluorobenzyl)oxy)pyridin-2-yl)piperidin-1-yl)methyl)-1-(2-methoxyethyl)-1H-benzo[d]imidazole-6-carboxylic acid], in that order: 1.7 µM, 0.12 µM, 88% and 79%.
With `Cn1c(CN2CCC(c3cccc(OCc4ccc(Cl)cc4)n3)CC2)nc2ccc(C(=O)O)cc21` [Example 9A-07, 2-[(4-{6-[(4-chlorobenzyl)oxy]pyridin-2-yl}piperidin-1-yl)methyl]-1-methyl-1H-benzimidazole-6-carboxylic acid], the figures for the EC50 in assay [1] and in assay [2] were 2.1 µM and 0.17 µM, respectively. In addition, the maximal response (Emax) in assay [1] (setting [3]) was 71%. In assay [2] (CHO GLP-1R Clone H6, relative to saturating concentration of full agonist GLP-1 (1 μM), arithmetic mean), the “Assay 1 Emax (%)” value is on record as 78%.
In the case of `Cn1c(CN2CCC(c3cccc(OCc4ccc(C#N)cc4)n3)CC2)nc2ccc(C(=O)O)cc21` [Example 9A-15, 2-[(4-{6-[(4-cyanobenzyl)oxy]pyridin-2-yl}piperidin-1-yl)methyl]-1-methyl-1H-benzimidazole-6-carboxylic acid], the concentration for a half-maximal effect (EC50) came out at 3.5 µM in assay [1] and 0.18 µM in assay [2]. In addition, the Emax in assay [1] (setting [3]) is 90%; in assay [2] (setting [4]), 78%.
For `O=C(O)c1ccc2nc(CN3CCC(c4cccc(OCc5ccc(Cl)cc5F)n4)CC3)n(Cc3cnco3)c2c1` [Example 10A-01, 2-[(4-{6-[(4-Chloro-2-fluorobenzyl)oxy]pyridin-2-yl}piperidin-1-yl)methyl]-1-(1,3-oxazol-5-ylmethyl)-1H-benzimidazole-6-carboxylic acid], in that order: 0.043 µM, 0.0032 µM, 84% and 77%.
`CCn1cncc1Cn1c(CN2CCC(c3cccc(OCc4ccc(Cl)cc4F)n3)CC2)nc2ccc(C(=O)O)cc21` [Example 10A-02, 2-[(4-{6-[(4-chloro-2-fluorobenzyl)oxy]pyridin-2-yl}piperidin-1-yl)methyl]-1-[(1-ethyl-1H-imidazol-5-yl)methyl]-1H-benzimidazole-6-carboxylic acid]: the half-maximal effective concentration (EC50) amounted to 0.0022 µM in assay [1] and 0.00034 µM in assay [2]. For the same molecule, the maximal response (Emax) in assay [1] (setting [3]) turned out to be 97%; in assay [2] (setting [4]), 89%.
Consider `O=C(O)c1ccc2nc(CN3CCC(c4cccc(OCc5ccc(F)cc5F)n4)CC3)n(C[C@@H]3CCO3)c2c1` [Example 10A-05, 2-[(4-{6-[(2,4-difluorobenzyl)oxy]pyridin-2-yl}piperidin-1-yl)methyl]-1-[(2S)-oxetan-2-ylmethyl]-1H-benzimidazole-6-carboxylic acid], for which the figures for the EC50 in assay [1] and in assay [2] were 0.038 µM and 0.0024 µM, respectively. Further, the Emax stood at 83% in assay [1] (setting [3]) and 71% in assay [2] (setting [4]).
As for `CCn1cnnc1Cn1c(CN2CCC(c3cccc(OCc4ccc(Cl)cc4F)n3)CC2)nc2ccc(C(=O)O)cc21` [Example 10A-07], the figures for the half-maximal effective concentration (EC50) in assay [1] and in assay [2] were 0.068 µM and 0.0028 µM, respectively. In addition, the values for the maximal effect (Emax) in assay [1] (setting [3]) and in assay [2] (setting [4]) were 81% and 82%, respectively.
With `O=C(O)c1ccc2nc(CN3CCN(c4cccc(OCc5ccc(Cl)cc5F)n4)CC3)n(C[C@@H]3CCO3)c2c1` [Example 10A-08, 2-[(4-{6-[(4-chloro-2-fluorobenzyl)oxy]pyridin-2-yl}piperazin-1-yl)methyl]-1-[(2S)-oxetan-2-ylmethyl]-1H-benzimidazole-6-carboxylic acid], the half-maximal effective concentration (EC50) worked out at 0.0092 µM in assay [1] and 0.00055 µM in assay [2]. Moreover, the Emax in assay [1] (setting [3]) worked out at 94%; in assay [2] (setting [4]), 77%.
Taken in the same sequence, the figures for `C[C@H]1CN(c2cccc(OCc3ccc(C#N)cc3F)n2)CCN1Cc1nc2ccc(C(=O)O)nc2n1C[C@@H]1CCO1` [Example 10A-09, 2-{[(2S)-4-{6-[(4-cyano-2-fluorobenzyl)oxy]pyridin-2-yl}-2-methylpiperazin-1-yl]methyl}-3-[(2S)-oxetan-2-ylmethyl]-3H-imidazo[4,5-b]pyridine-5-carboxylic acid] were 0.01 µM, 0.00099 µM, 120% and 95%.

By EC50 is commonly meant the midpoint of the concentration-response curve. As usually defined, the Emax is the size of the effect at its maximum, as opposed to the concentration needed.

Values taken from patent US10208019B2, “GLP-1 receptor agonists and uses thereof” (Pfizer Inc., priority 2016, dated 2019).
